Test [1] concerns 5'-T8iG4T isoguanine quadruplex, (T8iG4T)4 (DNA, other, 2'-deoxyisoguanine at 9, 10, 11, 12 (written as G)) TTTTTTTTGGGGT
Put plainly: UV-vis titration, Soret band. The conditions noted are these: 20 mM KCl; 40 mM Tris-HCl pH 8.0, 1% DMF, 0.05% Triton X-100, 25 °C; highest DNA tested 70 μM.

Test [2] deals with 5'-T8iG4T isoguanine pentaplex, (T8iG4T)5 (DNA, other, 2'-deoxyisoguanine at 9, 10, 11, 12 (written as G)) TTTTTTTTGGGGT
Put plainly: UV-vis titration, Soret band 404 nm. The conditions noted are these: 20 mM NaCl; 40 mM Tris-HCl pH 8.0, 1% DMF, 0.05% Triton X-100, 25 °C; 0.5 μM heme.

For test [3], the system named is 5'-T8G4T G-quadruplex, (T8G4T)4 (DNA, G4) TTTTTTTTGGGGT
The test is described as follows: UV-vis titration, Soret band 404 nm. The conditions noted are these: 40 mM Tris-HCl pH 8.0, 1% DMF, 0.05% Triton X-100, 25 °C, 0.5 μM heme.

One may read the Kd as the equilibrium constant for the complex coming apart. High values mean lower affinity, low ones higher affinity. With `C=CC1=C(C)C2=Cc3c(C=C)c(C)c4[n]3[Fe]([Cl])[n]3c(c(C)c(CCC(=O)O)c3=CC3=NC(=C4)C(C)=C3CCC(=O)O)=CC1=N2`, the binding entry in test [1] is listed as “no”. Also, the Kd is 1.28 ± 0.05 µM in test [2], 7.89 ± 0.96 µM in test [3] (20 mM KCl) and 3.22 ± 0.43 µM in test [3] (20 mM NaCl).
